Data set [1] has as its target T1, Neuropeptide Y receptor type 2 (Rattus norvegicus, UniProt Q9ERC0).
T1 sequence (Q9ERC0 whole entry): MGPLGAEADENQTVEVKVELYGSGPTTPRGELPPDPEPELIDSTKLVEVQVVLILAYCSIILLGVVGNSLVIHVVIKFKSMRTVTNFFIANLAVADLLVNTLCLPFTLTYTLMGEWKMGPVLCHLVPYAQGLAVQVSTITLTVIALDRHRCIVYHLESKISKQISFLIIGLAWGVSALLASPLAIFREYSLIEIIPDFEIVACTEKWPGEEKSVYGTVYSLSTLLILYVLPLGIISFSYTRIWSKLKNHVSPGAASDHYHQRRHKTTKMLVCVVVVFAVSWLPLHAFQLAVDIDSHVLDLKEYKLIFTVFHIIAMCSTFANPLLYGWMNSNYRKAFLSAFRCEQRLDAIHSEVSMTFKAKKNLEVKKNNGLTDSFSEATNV
Briefly: Agonist activity at rat neuropeptide Y2 receptor by [35S]GTPgammaS binding assay. Format: functional. In general terms: Binding of GTPγS marks nucleotide exchange on a G protein.

Data set [2] is described as follows: AUC (0 to 24 hrs) in C57BL/6J mouse at 1 mg/kg, sc measured during 5 mins to 24 hrs by LC/MS/MS method. Format: ADME, organism-based. As to conditions: in vivo. Further details: time < 24 hr, dose 1 mg/kg, route subcutaneous.
Data set [3] in a line: Bioavailability in C57BL/6J mouse at 1 mg/kg, sc measured during 5 mins to 24 hrs by LC/MS/MS method. The following applies: in vivo. Format: ADME, organism-based.
The target in data set [4] is T2, Neuropeptide Y receptor type 2 (Homo sapiens, UniProt P49146).
T2 sequence (P49146 whole entry): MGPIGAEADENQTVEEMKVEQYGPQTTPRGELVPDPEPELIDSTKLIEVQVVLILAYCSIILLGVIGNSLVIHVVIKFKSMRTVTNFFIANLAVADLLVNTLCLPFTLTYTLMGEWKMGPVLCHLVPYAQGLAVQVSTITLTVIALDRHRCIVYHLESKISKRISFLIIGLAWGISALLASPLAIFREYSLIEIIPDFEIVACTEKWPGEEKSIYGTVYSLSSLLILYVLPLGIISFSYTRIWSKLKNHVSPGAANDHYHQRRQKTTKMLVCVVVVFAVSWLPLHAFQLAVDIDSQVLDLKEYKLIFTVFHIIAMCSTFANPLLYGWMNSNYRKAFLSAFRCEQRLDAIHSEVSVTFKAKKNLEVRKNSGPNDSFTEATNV
Briefly: Agonist activity at human neuropeptide Y2 receptor expressed in CHO cell membranes assessed as stimulation of [35S]GTPgammaS binding incubated for 120 mins by liquid scintillation counting method. Format: functional.

The nature of data set [5]: Tmax in C57BL/6J mouse at 1 mg/kg, sc measured during 5 mins to 24 hrs by LC/MS/MS method. Format: ADME, organism-based. The following applies: in vivo.
Data set [6] concerns the target T2, Neuropeptide Y receptor type 2. Briefly: Displacement of [125I]-PYY from human neuropeptide Y2 receptor expressed in CHO cell membranes incubated for 60 mins by TopCount based method. (Displacement assays read how much labelled ligand stays bound in the presence of the test substance.)

As for `CC[C@](C)(NC(=O)[C@H]1C[C@H](O)CN1C(=O)[C@H](CO)NC(=O)c1c[nH]cn1)C(=O)N[C@@H](Cc1ccncc1)C(=O)N[C@@H](CC1CCCCC1)C(=O)N[C@@H](CC(C)(C)C)C(=O)N[C@@H](CC(N)=O)C(=O)N[C@@H](CCCCN)C(=O)NC(C)(C)C(=O)N[C@H](C(=O)N[C@@H](CCCNC(=N)N)C(=O)N[C@@H](CCC(N)=O)C(=O)N[C@@H](CCCNC(=N)N)C(=O)N[C@@H](CC1CCCCC1)C(N)=O)[C@@H](C)O`, the figures for the EC50 in data set [1] and in data set [4] were 0.038 nM and 0.15 nM, respectively. Moreover, the exposure AUC(0-t) (in general, exposure summed from dosing to a finite time, without extrapolation to infinity) at 24 h in data set [2] worked out at 0.347 µM·h. The bioavailability (usually dose-corrected exposure relative to a reference, in per cent) in data set [3] was found to be 60.2%. The Tmax (as a rule, the time at which the peak concentration occurs) in data set [5] turned out to be 10.2 min. In addition, in data set [6], the IC50 (commonly the concentration that inhibits the measured activity by half) worked out at 0.31 nM.
